Experimental data as given in patent US8053603B2, “Tetralone-based monoamine reuptake inhibitors” (Sunovion Pharmaceuticals Inc., priority 2006, dated 2011).
Where two headings read alike, the source gives them in different places.

What was measured:
Format in all cases: cell-based
[1] = biological target: T1, recombinant human dopamine transporter (Homo sapiens, UniProt Q01959); assay: Dopamine functional uptake assay for human reuptake transporter
T1 construct: expressed in transfected cells; host or cells: CHO-K1 or HEK293
Experimental: Dopamine Functional Uptake Assay for Human Reuptake Transporter
Either CHO-K1 or HEK293 cells expressing human recombinant dopamine transporter were plated before the assay. Test compound and/or vehicle was preincubated with cells in modified HEPES buffer pH 7.1 or pH 7.4 for 20 minutes at 18 to 25° C. and 50 nM [^3H]dopamine was then added for an additional timed incubation period (10 to 30 minutes). After washing the cells to remove [^3H]dopamine not internalized, the cells were lysed, and the amount of tritium in the lysate was measured using a liquid scintillation counter to determine [^3H]dopamine uptake. Non-specific binding of tritium was measured in a control reaction containing 10 μM nomifensine, and was subtracted from the counts for assays to correct for non-specific binding of tritium. Reduction of [^3H]dopamine uptake by 50 percent or more (≧50%) relative to an uninhibited control reaction indicates significant inhibitory activity.

[2] = biological target: T2, recombinant human norepinephrine transporter (Homo sapiens, UniProt P23975); assay: Norepinephrine functional uptake assay for human reuptake transporter; conditions: [3H]norepinephrine uptake, HEK293 or MDCK cells expressing human norepinephrine transporter
T2 construct: expressed in transfected cells; host or cells: HEK293 or MDCK
Experimental: Norepinephrine Functional Uptake Assay for Human Reuptake Transporter
The cells were plated before the assay. Test compound and/or vehicle was preincubated with cells in modified HEPES buffer pH 7.1 or pH 7.4 for 20 minutes at 18 to 25° C. . […] After the cells were washed to remove [^3H]norepinephrine not internalized, the cells were lysed, and the amount of tritium in the cell lysate was measured using a liquid scintillation counter to determine [^3H]norepinephrine uptake. Non-specific binding of tritium was measured in a control reaction containing 10 μM imipramine (or 10 μM nisoxetine), and was subtracted from the counts for assays to correct for non-specific binding of tritium. Reduction of [^3H]norepinephrine uptake by 50 percent or more (≧50%) relative to an uninhibited control reaction indicates significant inhibitory activity.

[3] = biological target: T3, recombinant human serotonin transporter (Homo sapiens, UniProt P31645); assay: Serotonin functional uptake assay for human reuptake transporter; conditions: [3H]serotonin uptake, HEK-293 cells expressing human serotonin transporter; read-out: Human IC50 (nM) SERT
T3 construct: expressed in transfected cells; host or cells: HEK-293
Experimental: Serotonin Functional Uptake Assay for Human Reuptake Transporter
HEK-293 cells expressing human serotonin transporter were plated before the assay. […] Cells with internalized [^3H]serotonin were washed and the amount of tritium taken into cells is counted using a liquid scintillation counter to determine [^3H]serotonin uptake.

[4] = [3H]dopamine uptake, CHO-K1 or HEK293 cells expressing human dopamine transporter, read-out: Human IC50 (nM) DAT

T3 sequence (P31645 whole entry): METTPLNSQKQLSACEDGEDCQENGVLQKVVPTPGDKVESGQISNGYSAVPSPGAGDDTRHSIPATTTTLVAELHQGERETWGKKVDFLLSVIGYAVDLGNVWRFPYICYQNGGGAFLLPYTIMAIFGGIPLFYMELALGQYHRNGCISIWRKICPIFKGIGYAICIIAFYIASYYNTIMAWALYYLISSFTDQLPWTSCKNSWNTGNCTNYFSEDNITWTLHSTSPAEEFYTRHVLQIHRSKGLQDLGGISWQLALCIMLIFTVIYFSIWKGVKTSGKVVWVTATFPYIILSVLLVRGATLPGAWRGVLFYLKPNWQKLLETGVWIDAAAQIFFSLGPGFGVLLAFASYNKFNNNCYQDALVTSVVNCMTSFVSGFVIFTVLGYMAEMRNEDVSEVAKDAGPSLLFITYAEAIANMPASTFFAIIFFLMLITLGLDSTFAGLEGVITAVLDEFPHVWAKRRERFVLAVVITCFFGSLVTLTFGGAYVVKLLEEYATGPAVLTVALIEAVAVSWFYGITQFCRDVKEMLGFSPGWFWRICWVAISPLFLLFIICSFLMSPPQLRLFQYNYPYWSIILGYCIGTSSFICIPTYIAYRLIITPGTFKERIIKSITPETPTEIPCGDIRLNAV
T1 sequence (Q01959 whole entry): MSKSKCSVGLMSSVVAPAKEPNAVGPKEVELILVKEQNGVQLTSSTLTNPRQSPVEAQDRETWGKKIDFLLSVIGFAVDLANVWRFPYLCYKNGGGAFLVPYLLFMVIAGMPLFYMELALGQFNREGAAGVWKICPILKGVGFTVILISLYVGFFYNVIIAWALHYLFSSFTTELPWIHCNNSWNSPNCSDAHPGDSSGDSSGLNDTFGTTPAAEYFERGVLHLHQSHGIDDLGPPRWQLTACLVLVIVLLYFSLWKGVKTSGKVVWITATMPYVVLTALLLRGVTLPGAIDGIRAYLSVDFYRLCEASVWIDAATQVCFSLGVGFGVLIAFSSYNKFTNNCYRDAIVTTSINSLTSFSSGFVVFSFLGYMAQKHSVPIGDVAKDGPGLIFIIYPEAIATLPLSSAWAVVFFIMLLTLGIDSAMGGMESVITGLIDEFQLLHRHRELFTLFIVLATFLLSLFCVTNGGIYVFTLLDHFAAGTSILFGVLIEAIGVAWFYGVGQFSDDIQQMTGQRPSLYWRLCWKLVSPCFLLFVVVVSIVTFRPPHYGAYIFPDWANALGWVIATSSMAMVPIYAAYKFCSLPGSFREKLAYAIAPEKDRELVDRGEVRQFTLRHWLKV
T2 sequence (P23975 whole entry): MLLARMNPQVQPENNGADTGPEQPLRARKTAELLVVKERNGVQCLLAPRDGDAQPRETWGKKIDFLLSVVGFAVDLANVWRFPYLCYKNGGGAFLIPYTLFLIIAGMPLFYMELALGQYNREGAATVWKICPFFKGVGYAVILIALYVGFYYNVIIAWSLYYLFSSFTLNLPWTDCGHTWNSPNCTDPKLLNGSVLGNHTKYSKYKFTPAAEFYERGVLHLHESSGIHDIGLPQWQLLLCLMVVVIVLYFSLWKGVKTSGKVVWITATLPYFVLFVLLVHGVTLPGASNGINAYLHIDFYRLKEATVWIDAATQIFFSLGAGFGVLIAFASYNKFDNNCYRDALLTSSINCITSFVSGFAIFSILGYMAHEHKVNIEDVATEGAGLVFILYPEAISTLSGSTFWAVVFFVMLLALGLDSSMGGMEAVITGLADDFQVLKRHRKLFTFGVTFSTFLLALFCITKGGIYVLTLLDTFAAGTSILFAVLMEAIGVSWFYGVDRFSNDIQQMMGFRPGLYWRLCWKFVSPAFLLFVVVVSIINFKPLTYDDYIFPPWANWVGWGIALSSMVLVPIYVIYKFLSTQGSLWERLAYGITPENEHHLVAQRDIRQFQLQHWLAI

Compound	IC50 ([2]; Human IC50 (nM) NET) [nM]	IC50 [1, 4] [nM]	IC50 ([2]; read-out: Human IC50 (nM) NET) [nM]	also measured
N[C@H]1Cc2ccccc2[C@H](c2ccc(Cl)c(Cl)c2)C1 (single isomer, unassigned) [Compound 6b, [4-(3,4-dichlorophenyl)-1,2,3,4-tetrahydro-naphthalen-2-yl]-amine]	731			IC50 ([1]; Human IC50 (nM) DAT): 408 nM
N[C@H]1Cc2ccccc2[C@H](c2ccc(Cl)c(Cl)c2)C1 (single isomer, unassigned) [Compound 6c, [4-(3,4-dichlorophenyl)-1,2,3,4-tetrahydro-naphthalen-2-yl]-amine]	855			IC50 ([1]; Human IC50 (nM) DAT): 894 nM
N[C@H]1Cc2ccccc2[C@H](c2ccc(Cl)c(Cl)c2)C1 (single isomer, unassigned) [Compound 6d, [4-(3,4-dichlorophenyl)-1,2,3,4-tetrahydro-naphthalen-2-yl]-amine]	174			IC50 ([1]; Human IC50 (nM) DAT): 175 nM
CN[C@H]1Cc2ccccc2[C@H](c2ccc(Cl)c(Cl)c2)C1 (single isomer, unassigned) [Compound 7b, 4-(3,4-dichlorophenyl)-N-methyl-1,2,3,4-tetrahydronaphthalen-2-amine]		62		
CN[C@H]1Cc2ccccc2[C@H](c2ccc(Cl)c(Cl)c2)C1 (single isomer, unassigned) [Compound 7c, 4-(3,4-dichlorophenyl)-N-methyl-1,2,3,4-tetrahydronaphthalen-2-amine]		281		
CN[C@H]1Cc2ccccc2[C@H](c2ccc(Cl)c(Cl)c2)C1 (single isomer, unassigned) [Compound 7d, 4-(3,4-dichlorophenyl)-N-methyl-1,2,3,4-tetrahydronaphthalen-2-amine]		72		
CN(C)[C@H]1Cc2ccccc2[C@H](c2ccc(Cl)c(Cl)c2)C1 (single isomer, unassigned) [Compound 8b, [4-(3,4-dichlorophenyl)-1,2,3,4-tetrahydro-naphthalen-2-yl]-dimethylamine]	174	176		
CN(C)[C@H]1Cc2ccccc2[C@H](c2ccc(Cl)c(Cl)c2)C1 (single isomer, unassigned) [Compound 8c, [4-(3,4-dichlorophenyl)-1,2,3,4-tetrahydro-naphthalen-2-yl]-dimethylamine]	164	273		
CN(C)[C@H]1Cc2ccccc2[C@H](c2ccc(Cl)c(Cl)c2)C1 (single isomer, unassigned) [Compound 8d, [4-(3,4-dichlorophenyl)-1,2,3,4-tetrahydro-naphthalen-2-yl]-dimethylamine]	98	319		
CNC[C@H]1Cc2ccccc2[C@H](c2ccc(Cl)c(Cl)c2)C1 (single isomer, unassigned) [Compound 15b, [4-(3,4-dichlorophenyl)-1,2,3,4-tetrahydro-naphthalen-2-ylmethyl]-methylamine]	126	103		
CNC[C@H]1Cc2ccccc2[C@H](c2ccc(Cl)c(Cl)c2)C1 (single isomer, unassigned) [Compound 15c, [4-(3,4-dichlorophenyl)-1,2,3,4-tetrahydro-naphthalen-2-ylmethyl]-methylamine]	210	111		
CNC[C@H]1Cc2ccccc2[C@H](c2ccc(Cl)c(Cl)c2)C1 (single isomer, unassigned) [Compound 15d, [4-(3,4-dichlorophenyl)-1,2,3,4-tetrahydro-naphthalen-2-ylmethyl]-methylamine]	372	484		
CN(C)CC1Cc2ccccc2C(c2ccc(Cl)c(Cl)c2)C1 (single isomer, unassigned) [Compound 16a, [4-(3,4-dichlorophenyl)-1,2,3,4-tetrahydro-naphthalen-2-ylmethyl]-dimethylamine]	565			
CN(C)CC1Cc2ccccc2C(c2ccc(Cl)c(Cl)c2)C1 (single isomer, unassigned) [Compound 16b, [4-(3,4-dichlorophenyl)-1,2,3,4-tetrahydro-naphthalen-2-ylmethyl]-dimethylamine]	309			
CN(C)C1CC(c2ccc(Cl)c(Cl)c2)c2ccccc2C1O (single isomer, unassigned) [Compound 23a, 4-(3,4-dichlorophenyl)-2-(dimethylamino)-1,2,3,4-tetrahydronaphthalen-1-ol]		371	710	IC50 [3]: 117 nM
CN(C)C1CC(c2ccc(Cl)c(Cl)c2)c2ccccc2C1O (single isomer, unassigned) [Compound 23b, 4-(3,4-dichlorophenyl)-2-(dimethylamino)-1,2,3,4-tetrahydronaphthalen-1-ol]	48	67		IC50 [3]: 1300 nM
CN(C)C1CC(c2ccc(Cl)c(Cl)c2)c2ccccc2C1O (single isomer, unassigned) [Compound 23c, 4-(3,4-dichlorophenyl)-2-(dimethylamino)-1,2,3,4-tetrahydronaphthalen-1-ol]	36	21		IC50 [3]: 2360 nM
CN(C)C1CC(c2ccc(Cl)c(Cl)c2)c2ccccc2C1O (single isomer, unassigned) [Compound 23d, 4-(3,4-dichlorophenyl)-2-(dimethylamino)-1,2,3,4-tetrahydronaphthalen-1-ol]	65	48		IC50 [3]: 48 nM
CN[C@H]1Cc2ccc(OC)cc2[C@@H](c2ccc(Cl)c(Cl)c2)C1 (single isomer, unassigned) [Compound 32a.1, 4-(3,4-dichlorophenyl)-6-methoxy-N-methyl-1,2,3,4-tetrahydronaphthalen-2-amine]		1080	1210	IC50 [3]: 162 nM
CN[C@H]1Cc2ccc(OC)cc2[C@@H](c2ccc(Cl)c(Cl)c2)C1 (single isomer, unassigned) [Compound 32a.2, 4-(3,4-dichlorophenyl)-6-methoxy-N-methyl-1,2,3,4-tetrahydronaphthalen-2-amine]		415	467	IC50 [3]: 130 nM
CN[C@H]1Cc2ccc(OC)cc2[C@@H](c2ccc(Cl)c(Cl)c2)C1 (single isomer, unassigned) [Compound 32a.4, 4-(3,4-dichlorophenyl)-6-methoxy-N-methyl-1,2,3,4-tetrahydronaphthalen-2-amine]		1680	786	IC50 [3]: 958 nM
CN[C@H]1CCc2ccccc2[C@H]1c1ccc(Cl)c(Cl)c1 (single isomer, unassigned) [Compound 36a, 1-(3,4-dichlorophenyl)-N-methyl-1,2,3,4-tetrahydronaphthalen-2-amine]		511	3450	
CN[C@H]1CCc2ccccc2[C@H]1c1ccc(Cl)c(Cl)c1 (single isomer, unassigned) [Compound 36b, 1-(3,4-dichlorophenyl)-N-methyl-1,2,3,4-tetrahydronaphthalen-2-amine]			7090	
CN[C@H]1CCc2ccccc2[C@H]1c1ccc(Cl)c(Cl)c1 (single isomer, unassigned) [Compound 36c, 1-(3,4-dichlorophenyl)-N-methyl-1,2,3,4-tetrahydronaphthalen-2-amine]		88	745	
CN[C@H]1CCc2ccccc2[C@H]1c1ccc(Cl)c(Cl)c1 (stereo in doubt) [Compound 36d, 1-(3,4-dichlorophenyl)-N-methyl-1,2,3,4-tetrahydronaphthalen-2-amine]		204	1620	
N[C@H]1Cc2ccccc2[C@H](c2ccc(Cl)c(Cl)c2)C1 [Compound 6a, [4-(3,4-dichlorophenyl)-1,2,3,4-tetrahydro-naphthalen-2-yl]-amine]			124	IC50 ([1]; read-out: Human IC50 (nM) DAT): 350 nM
CN[C@H]1Cc2ccccc2[C@H](c2ccc(Cl)c(Cl)c2)C1 [Compound 7a, 4-(3,4-dichlorophenyl)-N-methyl-1,2,3,4-tetrahydronaphthalen-2-amine]		114		
CN(C)[C@H]1Cc2ccccc2[C@H](c2ccc(Cl)c(Cl)c2)C1 [Compound 8a, [4-(3,4-dichlorophenyl)-1,2,3,4-tetrahydro-naphthalen-2-yl]-dimethylamine]		454	167	
CNC[C@H]1Cc2ccccc2[C@H](c2ccc(Cl)c(Cl)c2)C1 [Compound 15a, [4-(3,4-dichlorophenyl)-1,2,3,4-tetrahydro-naphthalen-2-ylmethyl]-methylamine]		125	72	
